Assay results as given in patent US8188130B1, “Anti-cancer hydantoin compounds and methods” (University of Louisiana at Monroe, priority 2008, dated 2012).
Where no end group is shown, it is not given here.

Columns and labels:
PC-3M cells [1] = experiment: Invasion assay (Matrigel Boyden invasion chambers); assay type: cell-based; settings: 24 hours, FIG. 2
Description: Invasion assays were used to identify compounds with antimetastatic activity. Invasion assays were performed on a control group, a calcitonin (CT) stimulated group, a drug treated group and a group that was both drug treated and CT stimulated. The assay employed two-compartmented Boyden invasion chambers sold under the trademark MATRIGEL. The assay conditions were as follows: exponentially growing PC cells were serum-starved for 24 hours with basal incubation medium. Serum-starved cells were then seeded at a density of 25×10^3 cells/well in the upper insert of the invasion chamber. The lower chamber received the chemoattractant medium, which consisted of 90% basal RPMI medium and 10% conditioned medium from the cultures of PC-3M cells expressing constitutively active Gsa protein as described in Chien, J., Wong, E., Nikes, E., Noble, M. J., Pantazis, C. G., and Shah, G. V. (1999) Oncogene 18(22), 3376-3382 which is incorporated herein by reference. The incubations were carried out for 24 hours, after which the basement matrix protein or Matrigel™ (along with non-invading cells) was scraped off with cottonswabs, and the outer side of the insert was fixed and stained using hemaoxylin staining sold under the trademark Diff Quick (Dade Behring Diagnostics, Aguada, PR). The number of cells migrated on the outer bottom side of the insert were counted under the microscope in six or more randomly selected fields (magnification: 100×). The final results were expressed as mean+/−SEM number of invaded cells per 100× field. Each experiment was done in triplicates, and the experiment was repeated twice. […] To correct this, the growth rate was determined for PC-3M cells under identical culture conditions. 25×10^3 cells were plated at hourly intervals in six-well dishes and cultured for 1-24 hours. Mean percent increase in the cell number was determined by counting the net increase in the number of cells. […] This correction was applied to the results of invasion assays.

PC-3M cells [2] = experiment: Growth rate of PC-3M cells by cell counting (correction for invasion assay); assay type: cell-based; settings: vehicle control=1; cultured 1-24 hours
Description: Invasion assays were used to identify compounds with antimetastatic activity. Invasion assays were performed on a control group, a calcitonin (CT) stimulated group, a drug treated group and a group that was both drug treated and CT stimulated. The assay employed two-compartmented Boyden invasion chambers sold under the trademark MATRIGEL. The assay conditions were as follows: exponentially growing PC cells were serum-starved for 24 hours with basal incubation medium. Serum-starved cells were then seeded at a density of 25×10^3 cells/well in the upper insert of the invasion chamber. The lower chamber received the chemoattractant medium, which consisted of 90% basal RPMI medium and 10% conditioned medium from the cultures of PC-3M cells expressing constitutively active Gsa protein as described in Chien, J., Wong, E., Nikes, E., Noble, M. J., Pantazis, C. […] The number of cells migrated on the outer bottom side of the insert were counted under the microscope in six or more randomly selected fields (magnification: 100×). The final results were expressed as mean+/−SEM number of invaded cells per 100× field. […] To correct this, the growth rate was determined for PC-3M cells under identical culture conditions. […] Mean percent increase in the cell number was determined by counting the net increase in the number of cells. […]

[3] = system: PC-3M cells over expressing CT; experiment: Xenograft testing, orthotopic implant in athymic nude mice; assay type: in vivo; settings: compound 1 200 μg/day, compound 2 40 μg/day; for average life-expectancy: intraperitoneally every other day, untreated 54 days, ± SEM; for tumor growth in secondary organs (metastases): intraperitoneally, FIG. 5
Description: In vivo xenograft testing was done on athymic nude mice to measure the anti-cancer effect of various compounds. PC-3M prostate cells were used that contain a red fluorescence protein from gene transfer to facilitate tracking of cancer cells. The red fluorescence protein used is described in Yang, M., Baranov, E., Wang, J. W., Jiang, P., Wang, X., Sun, F. X., Bouvet, M., Moossa, A. R., Penman, S., and Hoffman, R. M. (2002) Proc Natl Acad Sci U S A 99(6), 3824-3829, which is incorporated herein by reference. 1×10^5 PC-3M cells over expressing CT were implanted in 30 day old mice orthotopically, that is the prostate cancer cells were implanted into the prostate of the mice. The cells were then allowed to grow in their native environment allowing for metastasis into other organs such as the lymph nodes, bones and lungs. The mice, other than the control mice were injected intraperitoneally every other day. Dosing rates were 200 μg/day or 5 μg/g body weight/day-intrapertonieally for compound 1 and 40 μg/day or 1 μg/g body weight/day-intraperitoneally for compound 2. Tumor growth was measured by fluorescence imaging and the mice were sacrificed upon signs of morbidity such as immobility and high tumor burden.

prostate tumors = experiment: Testing of transgenic LPB-Tag mice that spontaneously form prostate tumors; assay type: in vivo; settings: 80 μg/week intraperitoneally
Description: In vivo testing was done on transgenic mice that spontaneously form prostate tumors to measure the anti-cancer effect of compound 2. The mice used were LPB-Tag mice of the type described in Kasper, S., and Smith, J. A., Jr. (2004) J Urol 172(1), 12-19 which is incorporated herein by reference. The mice were originally developed by Dr. Robert Matusik of Vanderbilt University. LPB-Tag mice are generated by the targeted expression of SV40 large T-antigen (Tag) in the prostate using androgen-regulated, prostate-specific large probasin (LPB) gene promoter. The mice develop PIN lesions as well as extensive prostate adenocarcinomas in adulthood. The mice had their p53 gene knocked out and T-antigen selectively targeted to the prostate. Therefore, the mice begin to develop prostate tumors spontaneously as they approached the age of 50 days (adulthood), the tumors gradually grew and became very large at the age of 90 days. Mice were sacrificed around day 90 and their prostates and other organs were harvested for studying tumor characteristics and histology. Compound 2 was delivered at a dosing of 80 μg/week or 2 μg/g body weight/week-intraperitoneally. […] These tests indicate that compounds of this invention may be used as a chemopreventive for high risk patients.

PC-3M cells [4] = experiment: MTT assay, cell proliferation; assay type: cell-based
Description: MTT assays were used to measure effect of the tested drugs on tumor growth. MTT assays were performed on a control group, a calcitonin (CT) stimulated group, a group treated with compound 1 (drug treated), and a group that was both drug treated and CT stimulated. Conditions for the MTT assay were as follows: Exponentially growing cells were plated in a 96-well plate at a density of 8×10^3 cells per well, and cultured for 24 hours in complete growth medium (RPMI 1640 containing 10% fetal bovine, 10 mM HEPES, 4 mM L-glutamine, 100 IU/ml penicillin G and 100 μg/ml streptomycin). The complete growth medium was then replaced with 100 μl of basal incubation medium (RPMI 1640 containing 0.1% BSA, 10 mM HEPES, 4 mM L-glutamine, 100 IU/ml penicillin G and 100 μg/ml streptomycin). The cells were then treated with test compounds (dissolved in basal incubation medium), and the culture was continued at 37° C. under 5% CO2 for 24 hours. The cells were then treated with MTT solution at 37° C. for 4 h, and the color reaction was stopped with the stop solution (10% sodium dodecyl sulfate solution in 0.01 M hydrochloric acid) (100 μl/well). The incubation at 37° C. was continued until the formazan product was completely dissolved. Absorbance of the samples was determined at 595 nm with an ELISA plate reader (Bio-Rad, Hercules, Calif.).

[5] = system: PC-3M prostate cancer cell line; experiment: In vitro metastasis assay (spheroid disaggregation, radial migration); assay type: cell-based
Description: In vitro metastasis assays were conducted to determine the anti-metastatic effect of various compounds. This assay involves preparation of spheroids approximately […] in diameter of cancer cells cultured on an extracellular matrix. In 24 hours, only metastatic cells disaggregate from the spheroid and start radial migration. Thus, lower measurements of radial migration are indicative of greater effectiveness of the drug/compound. Spheroids were prepared from single cell suspension of prostate cell lines as described before in Gondi, C. S., Lakka, S. S., Yanamandra, N., Olivero, W. C., Dinh, D. H., Gujrati, M., Tung, C. H., Weissleder, R., and Rao, J. S. (2004) Cancer Res 64(12), 4069-4077 and in Thomas, S., Chiriva-Internati, M., and Shah, G. V. (2007) Clin Exp Metastasis 24(5), 363-377 both of which are incorporated herein by reference. 5×10^4/ml cells in RPMI 1640 serum-free medium were placed on 96-well low-attachment tissue culture plates. The plates were rocked on gyrotory shaker in a CO2 incubator at 37° C. for 2 days, at the end of which the spheroids measuring 150-300 μm in diameter (˜4×10^4 cells/spheroid) were formed. A single spheroid was then placed in the center of each well of extracellular-matrix-coated 24-well microplate in […] of serum-free medium. From previous studies, it was determined that 1 hour was an appropriate time for spheroids to begin adhering to an extracellular matrix. Thus, t=0 was set as 1 hour from initial plating, so that if the plate was not disturbed, the spheroids would not move from their location at the time of plating. Spheroids were digitally photographed at t=0, cultured at 37° C. for 48 h and then re-photographed. […] The diameter of the area covered with cells migrated from the spheroids was measured in a microscope calibrated with a stage and ocular micrometer. The radial distance of migration was calculated after subtraction of the mean initial spheroidal diameter at t=0.

calcitonin (CGNLSTCMLGTYTQDFNKFHTFPQTAIGVGAP; ends and bridges not checked; cysteine pairing not given here; UniProt P01258 85-116, looked up) [CT, calcitonin (CT), used to stimulate proliferation, invasion and metastasis of PC-3M cells, reference compound]
invasion of PC-3M cells (PC-3M cells [1]; CT 50 nM): significantly increased | relative CT-induced increase in cell number, pooled results of all time points (PC-3M cells [2]): 1.19

CCSc1ccc(/C=C2\NC(=O)NC2=O)cc1 [compound 2, (Z)-5-(4-S-ethylbenzylidene)imidazolidine-2,4-dione]
average life-expectancy [3]: 66 ± 1 days | tumor growth in secondary organs (metastases) [3]: completely prevented tumor growth in most secondary organs | increased survival (prostate tumors): at least 1 week | decrease of tumor size measured at necropsy compared to diluents treated mice (prostate tumors; sacrificed around day 90): 62%

O=C1NC(=O)/C(=C/c2ccc(O)cc2)N1 [compound 1, (Z)-5-(4-hydroxybenzylidene)imidazolidine-2,4-dione]
rate of CT stimulated cell proliferation (PC-3M cells [4]; 50 μM, 24 hours, CT stimulated, FIG. 1): moderate but significant decline | rate of baseline cell proliferation (PC-3M cells [4]; 50 μM, 24 hours, baseline (no CT), FIG. 1): moderate but significant decline | dosage rate until which no cytotoxic effect on PC-3M cells (PC-3M cells [4]; PC-3M cells): ≥ 500 µM | baseline invasion (PC-3M cells [1]; 50 μM, no CT): did not affect baseline invasion | CT-stimulated invasion (PC-3M cells [1]; 50 μM, CT 50 nM): almost abolished CT-stimulated invasion | dose until which no cytotoxicity [5]: ≥ 500 µM | disaggregation and migration of cells from spheroids ([5]; 50 μM): did not disaggregate or migrate | effective dose range ([5]; multiple doses, distances migrated by the cells): 25 to 200 µM | average life-expectancy [3]: 61.44 days | tumor growth in secondary organs (metastases) [3]: completely prevented tumor growth in most secondary organs
